Data as given in US12728177B2, “Disinfectant composition with rapid antiviral efficacy” (priority 2015, dated 2026).

Key:
[1] = 25° C.; cited from earlier work
[2] = tested on: Bacteriophage Phi X174 (ATCC 13706-81); test: Virucidal infectivity (percent reduction in virus infectivity, E. coli outgrowth with resazurin dye); details: 10-minute exposure;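 also: exposed phage diluted into broth, E. coli outgrowth followed 16-24 h at 37 °C by fluorescence rate, unexposed phage set as 100% signal, phage-free as 0%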
Protocol: Bacteriophage Phi X174 (ATCC 13706-81) was added 1:10 (−108 plaque forming units (PFU) per sample) into a solution containing the composition of interest. Following a 10-minute exposure, the sample was transferred 1:10 into Tryptic Soy Broth (TSB). Following 10 minutes in TSB, a second 1:10 dilution was completed into an outgrowth solution for the Phi X174 host (E. coli ATCC 13706) that contained TSB and a resazurin dye. E. coli outgrowth was then monitored at 37° C. for 16-24 hours and the rate of fluorescence development was calculated. The rate observed when Phi X174 was not exposed to any composition represented a 100% Phi X174 signal. The rate observed without Phi X174 present represented a “0% signal.” The rate obtained following Phi X174 exposure to a given composition was compared to the signal obtained with no exposure to calculate the “percent reduction in virus infectivity.”

[3] = secondary agent 2-7 mM + Maleic Acid 3 mM
[4] = secondary agent 2-7 mM + Phosphonc Acid 50-150 mM
[5] = secondary agent 2-7 mM + Sulfosuccinic Acid 10-32 mM

## O=C(O)CC(C(=O)O)S(=O)(=O)O (stereo not shown) [Sulfosuccinic Acid]
[1]
  pka1 (first acid dissociation constant): −1.65
[2]; Sulfosuccinic Acid 10-32 mM, no secondary agent
  reduction in virus infectivity, Primary Antiviral Agent without secondary agent (None): 0-75%

## [Cl-].[Cl-].[Zn+2] [Zinc Chloride]
[2]; agent alone 2 mM
  % Reduction, Secondary Antiviral Agent Alone: 5%
[2]; agent alone 6 mM
  % Reduction, Secondary Antiviral Agent Alone: 0%
[2]; agent alone 18 mM
  % Reduction, Secondary Antiviral Agent Alone: 0%
[2]; agent alone 53 mM
  % Reduction, Secondary Antiviral Agent Alone: 0%
[2]; secondary agent 53 mM + Maleic Acid 3 mM
  reduction in virus infectivity, in Combination with Maleic Acid (3 mM): 0%
[2]; secondary agent 53 mM + Phosphonc Acid 50-150 mM
  reduction in virus infectivity, in Combination with Phosphonc Acid (50-150 mM): 88%
[2]; secondary agent 53 mM + Sulfosuccinic Acid 10-32 mM
  reduction in virus infectivity, in Combination with Sulfosuccinic Acid (10-32 mM): 99%
[2]; [3]
  reduction in virus infectivity, in Combination with Maleic Acid (3 mM): 99%
[2]; [4]
  reduction in virus infectivity, in Combination with Phosphonc Acid (50-150 mM): 10%
[2]; [5]
  reduction in virus infectivity, in Combination with Sulfosuccinic Acid (10-32 mM): 99%
[2]; secondary agent 6-13 mM + Maleic Acid 3 mM
  reduction in virus infectivity, in Combination with Maleic Acid (3 mM): 99%
[2]; secondary agent 6-13 mM + Phosphonc Acid 50-150 mM
  reduction in virus infectivity, in Combination with Phosphonc Acid (50-150 mM): 28%
[2]; secondary agent 6-13 mM + Sulfosuccinic Acid 10-32 mM
  reduction in virus infectivity, in Combination with Sulfosuccinic Acid (10-32 mM): 99%
[2]; secondary agent 18-26 mM + Maleic Acid 3 mM
  reduction in virus infectivity, in Combination with Maleic Acid (3 mM): 99%
[2]; secondary agent 18-26 mM + Sulfosuccinic Acid 10-32 mM
  reduction in virus infectivity, in Combination with Sulfosuccinic Acid (10-32 mM): 99%

## [Cl][Fe]([Cl])[Cl] [iron (iii) chloride]
[2]; agent alone 8 mM
  % Reduction, Secondary Antiviral Agent Alone: 3%
[2]; agent alone 17 mM
  % Reduction, Secondary Antiviral Agent Alone: 18%
[2]; agent alone 33 mM
  % Reduction, Secondary Antiviral Agent Alone: 21%
[2]; agent alone 66 mM
  % Reduction, Secondary Antiviral Agent Alone: 32%
[2]; secondary agent 8 mM + Maleic Acid 3 mM
  reduction in virus infectivity, in Combination with Maleic Acid (3 mM): 0%
[2]; secondary agent 8 mM + Sulfosuccinic Acid 10-32 mM
  reduction in virus infectivity, in Combination with Sulfosuccinic Acid (10-32 mM): 99%
[2]; secondary agent 17 mM + Maleic Acid 3 mM
  reduction in virus infectivity, in Combination with Maleic Acid (3 mM): 23%
[2]; secondary agent 17 mM + Sulfosuccinic Acid 10-32 mM
  reduction in virus infectivity, in Combination with Sulfosuccinic Acid (10-32 mM): 99%
[2]; secondary agent 33 mM + Maleic Acid 3 mM
  reduction in virus infectivity, in Combination with Maleic Acid (3 mM): 0%
[2]; secondary agent 33 mM + Sulfosuccinic Acid 10-32 mM
  reduction in virus infectivity, in Combination with Sulfosuccinic Acid (10-32 mM): 99%
[2]; secondary agent 66 mM + Maleic Acid 3 mM
  reduction in virus infectivity, in Combination with Maleic Acid (3 mM): 0%
[2]; secondary agent 66 mM + Sulfosuccinic Acid 10-32 mM
  reduction in virus infectivity, in Combination with Sulfosuccinic Acid (10-32 mM): 99%

## Aluminum chlorohydrate
[2]; agent alone 2 mM
  % Reduction, Secondary Antiviral Agent Alone: 1%
[2]; agent alone 6 mM
  % Reduction, Secondary Antiviral Agent Alone: 3%
[2]; agent alone 18 mM
  % Reduction, Secondary Antiviral Agent Alone: 2%
[2]; agent alone 55 mM
  % Reduction, Secondary Antiviral Agent Alone: 9%
[2]; secondary agent 55 mM + Maleic Acid 3 mM
  reduction in virus infectivity, in Combination with Maleic Acid (3 mM): 99%
[2]; secondary agent 55 mM + Phosphonc Acid 50-150 mM
  reduction in virus infectivity, in Combination with Phosphonc Acid (50-150 mM): 68%
[2]; secondary agent 55 mM + Sulfosuccinic Acid 10-32 mM
  reduction in virus infectivity, in Combination with Sulfosuccinic Acid (10-32 mM): 99%
[2]; [3]
  reduction in virus infectivity, in Combination with Maleic Acid (3 mM): 17%
[2]; [4]
  reduction in virus infectivity, in Combination with Phosphonc Acid (50-150 mM): 43%
[2]; [5]
  reduction in virus infectivity, in Combination with Sulfosuccinic Acid (10-32 mM): 99%
[2]; secondary agent 6-14 mM + Maleic Acid 3 mM
  reduction in virus infectivity, in Combination with Maleic Acid (3 mM): 28%
[2]; secondary agent 6-14 mM + Phosphonc Acid 50-150 mM
  reduction in virus infectivity, in Combination with Phosphonc Acid (50-150 mM): 34%
[2]; secondary agent 6-14 mM + Sulfosuccinic Acid 10-32 mM
  reduction in virus infectivity, in Combination with Sulfosuccinic Acid (10-32 mM): 99%
[2]; secondary agent 18-27 mM + Maleic Acid 3 mM
  reduction in virus infectivity, in Combination with Maleic Acid (3 mM): 9%
[2]; secondary agent 18-27 mM + Phosphonc Acid 50-150 mM
  reduction in virus infectivity, in Combination with Phosphonc Acid (50-150 mM): 29%
[2]; secondary agent 18-27 mM + Sulfosuccinic Acid 10-32 mM
  reduction in virus infectivity, in Combination with Sulfosuccinic Acid (10-32 mM): 99%

## Laureth-9 [Hetoxol LA-9]
[2]; agent alone 6 mM
  % Reduction, Secondary Antiviral Agent Alone: 0%
[2]; agent alone 17 mM
  % Reduction, Secondary Antiviral Agent Alone: 0%
[2]; agent alone 50 mM
  % Reduction, Secondary Antiviral Agent Alone: 0%
[2]; agent alone 150 mM
  % Reduction, Secondary Antiviral Agent Alone: 2%
[2]; secondary agent 0.2 mM + Maleic Acid 3 mM
  reduction in virus infectivity, in Combination with Maleic Acid (3 mM): 9%
[2]; secondary agent 0.2 mM + Phosphonc Acid 50-150 mM
  reduction in virus infectivity, in Combination with Phosphonc Acid (50-150 mM): 57%
[2]; secondary agent 0.2 mM + Sulfosuccinic Acid 10-32 mM
  reduction in virus infectivity, in Combination with Sulfosuccinic Acid (10-32 mM): 5%
[2]; secondary agent 1 mM + Maleic Acid 3 mM
  reduction in virus infectivity, in Combination with Maleic Acid (3 mM): 65%
[2]; secondary agent 1 mM + Phosphonc Acid 50-150 mM
  reduction in virus infectivity, in Combination with Phosphonc Acid (50-150 mM): 62%
[2]; secondary agent 1 mM + Sulfosuccinic Acid 10-32 mM
  reduction in virus infectivity, in Combination with Sulfosuccinic Acid (10-32 mM): 0%
[2]; secondary agent 5 mM + Maleic Acid 3 mM
  reduction in virus infectivity, in Combination with Maleic Acid (3 mM): 0%
[2]; secondary agent 5 mM + Phosphonc Acid 50-150 mM
  reduction in virus infectivity, in Combination with Phosphonc Acid (50-150 mM): 11%
[2]; secondary agent 5 mM + Sulfosuccinic Acid 10-32 mM
  reduction in virus infectivity, in Combination with Sulfosuccinic Acid (10-32 mM): 0%
[2]; secondary agent 27 mM + Maleic Acid 3 mM
  reduction in virus infectivity, in Combination with Maleic Acid (3 mM): 0%
[2]; secondary agent 27 mM + Phosphonc Acid 50-150 mM
  reduction in virus infectivity, in Combination with Phosphonc Acid (50-150 mM): 10%
[2]; secondary agent 27 mM + Sulfosuccinic Acid 10-32 mM
  reduction in virus infectivity, in Combination with Sulfosuccinic Acid (10-32 mM): 0%
